Earlier results in patent US8657943B2, “1-hydroxy-2-O-acyl-sn-glycero-3-phosphocholine compounds, preparation process, antifouling composition, process for its preparation, method to prevent fouling, method to turn a surface into an antifouling surface, and, covered surface” (UFRJ, IEAPM, UFF, priority 2010, dated 2014).

Assays:
different cell types = conditions: very low concentrations
Ostrea edulis = conditions: 75 days exposure, 0.24 μg/L
mussels = conditions: concentrations of up to 100 ng/L in seawater

Row | Substance | concentrations that trigger physiological responses (different cell types) | larval production (Ostrea edulis) | sex change male to female (Ostrea edulis) | effect on the growth of mussels (mussels)
1 | 1-O-alkyl-2-acetyl-sn-glycero-3-phosphocholine [platelet activating factor] | 10^−12 to 10^−9 M | – | – | –
2 | tri-butyl tin [TBT] | – | completely inhibited | a delay in changing sex male to female was observed | significant reductions in the growth of mussels
